A word on the EC50: it is the concentration giving half of the maximal effect. As a reminder, the IC50 is the midpoint of a concentration-inhibition curve.

The subject of test [1] is HCV replicon cells (replicon RNA level). Briefly: Cell-Based HCV Replicon Assay. The following applies: Hepatitis C virus, 72 h; replicon RNA level by real time PCR (Taqman), cells harvested on day 3; read-out: EC50. The procedure: To measure cell-based anti-HCV activity of the a Compound of Formula (I), replicon cells were seeded at 5000 cells/well in 96-well collagen I-coated Nunc plates in the presence of the Compound of Formula (I). Various concentrations of a Compound of Formula (I), typically in 10 serial 2-fold dilutions, were added to the assay mixture, with the starting concentration ranging from 250 μM to 1 μM. The final concentration of DMSO was 0.5%, fetal bovine serum was 5%, in the assay media. Cells were harvested on day 3 by the addition of 1× cell lysis buffer (Ambion cat #8721). The replicon RNA level was measured using real time PCR (Taqman assay). The amplicon was located in 5B. The PCR primers were: 5B.2F, ATGGACAGGCGCCCTGA; 5B.2R, […]; the probe sequence was FAM-labeled CACGCCATGCGCTGCGG. GAPDH RNA was used as endogenous control and was amplified in the same reaction as NS5B (multiplex PCR) using primers and VIC-labeled probe recommended by the manufacturer (PE Applied Biosystem). The real-time RT-PCR reactions were run on ABI PRISM 7900HT Sequence Detection System using the following program: 48° C. for 30 min, 95° C. for 10 min, 40 cycles of 95° C. for 15 sec, 60° C. for 1 min. The ΔCT values (CT5B-CTGAPDH) were plotted against the concentration of test compound and fitted to the sigmoid dose-response model using XLfit4 (MDL). EC50 was defined as the concentration of inhibitor necessary to achieve ΔCT=1 over the projected baseline; EC90 the concentration necessary to achieve ΔCT=3.2 over the baseline. Alternatively, to quantitate the absolute amount of replicon RNA, a standard curve was established by including serially diluted T7 transcripts of replicon RNA in the Taqman assay. All Taqman reagents were from PE Applied Biosystems. Such an assay procedure was described in detail in e.g. Malcolm et al., Antimicrobial Agents and Chemotherapy 50: 1013-1020 (2006).
HCV Replicon assay data for selected Compounds of Formula (I) is provided below in Table 1, wherein the compound numbers correspond to the compound numbering set forth in the above specification.
A general note: A replicon is a self-replicating genome or part of one, used to study replication in cells.

For test [2], the target named is T1, HCV NS5B polymerase (NS5BΔCT21, from HCV-Con 1 isolate, genotype 1b) (Hepatitis C virus genotype 1b, UniProt Q9WMX2).
T1 construct: A soluble C-terminal 21-amino acid truncated NS5B enzyme form; polyhistidine (C); made in house; host or cells: Escherichia coli
Kind of test: HCV NS5B Polymerase Inhibition Assay. It counts as biochemical. From the text:
A chemically synthesized 75-mer version, designated DCoH75, whose sequence matches the 3′-end of D-RNA, and DCoH75ddC, where the 3′-terminal cytidine of DCoH75 is replaced by dideoxycytidine, were used for assaying the NS5B enzyme activity as described in Ferrari et al., 12th International Symposium on HCV and Related Viruses, P-306 (2005). The sequence of the template RNA was: 5′-UGUGCCGGUCUUUCUGAACGGGAUAUAAACCUGGCCAGCUUCAUCGAACAAGUUGCCGUGUCUAUGACAUAGAUC-3′. A soluble C-terminal 21-amino acid truncated NS5B enzyme form (NS5BΔCT21, from HCV-Con 1 isolate, genotype 1b, Genbank accession number AJ238799) was produced and purified from Escherichia coli as C-terminal polyhistidine-tagged fusion protein as described in Ferrari et al., J. Virol. 73:1649-1654 (1999). A typical assay contained 20 mM Hepes pH 7.3, 10 mM MgCl2, 60 mM NaCl, 100 μg/ml BSA, 20 units/ml RNasin, 7.5 mM DTT, 0.1 μM ATP/GTP/UTP, 0.026 μM CTP, 0.25 mM GAU, 0.03 μM RNA template, 20 μCi/ml [^33P]-CTP, 2% DMSO, and 30 or 150 nM NS5B enzyme. Reactions were incubated at 22° C. for 2 hours, then stopped by adding 150 mM EDTA, washed in DE81 filter plate in 0.5M di-basic sodium phosphate buffer, pH 7.0, and counted using Packard TopCount after the addition of scintillation cocktail. Polynucleotide synthesis was monitored by the incorporation of radiolabeled CTP. The effect of the Compounds of Formula (I) on the polymerase activity was evaluated by adding various concentrations of a Compound of Formula (I), typically in 10 serial 2-fold dilutions, to the assay mixture. The starting concentrations ranged from 200 μM to 1 μM. An IC50 value for the inhibitor, defined as the compound concentration that provides 50% inhibition of polymerase activity, was determined by fitting the cpm data to the Hill equation Y=100/(1+10^((LogIC50-X)*HillSlope)), where X is the logarithm of compound concentration, and Y is the % inhibition. Ferrari et al., 12th International Symposium on HCV and Related Viruses, P-306 (2005) described in detail this assay procedure. It should be noted that such an assay as described is exemplary and not intended to limit the scope of the invention. The skilled practitioner can appreciate that modifications including but not limited to RNA template, primer, nucleotides, NS5B polymerase form, buffer composition, can be made to develop similar assays that yield the same result for the efficacy of the compounds and compositions described in the invention.
NS5B polymerase inhibition data for selected Compounds of Formula (I) is provided below in Table 2, wherein the compound numbers correspond to the compound numbering set forth in the above specification.

[3] abbreviates: NS5B polymerase inhibition, [33P]-CTP incorporation, 22° C. for 2 hours, read-out: IC50.

Molecules are shown by their SMILES. Where two headings read alike, the source gives them in different places.

On to `O=C(O)c1c(-c2ccc[nH]c2=O)c2c3occ(Cl)c3ccc2n1Cc1ccccc1F` [Compound 45], for which the EC50 in test [1] was below 500 nM. Moreover, the half-inhibitory concentration (IC50) in test [2] (setting [3]) is below 25 nM.
For the molecule `CCc1coc2c1ccc1c2c(-c2ccc[nH]c2=O)c(C(=O)NS(C)(=O)=O)n1Cc1cc(F)ccc1F` [Compound 69], the EC50 in test [1] is below 500 nM. The IC50 in test [2] (setting [3]) was above 100 nM.
For `O=C(O)c1c(-c2ccc[nH]c2=O)c2c3occc3ccc2n1Cc1ccccc1F` [Compound 1], in test [1], the EC50 is below 500 nM. Also, the IC50 in test [2] (setting [3]) is below 25 nM.
Regarding `O=C(O)c1c(-c2ccc[nH]c2=O)c2c3occc3c(F)cc2n1Cc1nc2ccccc2[nH]c1=O` [Compound 117], in test [1], the EC50 was below 500 nM. Besides, in test [2] (setting [3]), the IC50 was below 25 nM.
For the molecule `C[C@@H]1COc2c1ccc1c2c(-c2ccc[nH]c2=O)c(C(=O)NS(C)(=O)=O)n1Cc1cc(F)ccc1F` [Compound 148], the EC50 in test [1] is below 500 nM. In addition, in test [2] (setting [3]), the IC50 was below 25 nM.
In the case of `O=C(NS(=O)(=O)C1CC1)c1c(-c2ccc[nH]c2=O)c2c3occc3c(F)cc2n1Cc1ccc2[nH]c(C(F)(F)F)nc2c1` [Compound 222], in test [1], the concentration for a half-maximal effect (EC50) was below 500 nM. Also, the IC50 in test [2] (setting [3]) was below 25 nM.
As to `O=C(O)c1c(-c2ccc[nH]c2=O)c2c3occc3c(F)cc2n1Cc1cc(=O)[nH]cc1Br` [Compound 135], the EC50 in test [1] was below 500 nM. In addition, in test [2] (setting [3]), the IC50 was below 25 nM.
For `NC(=O)c1cc(Cn2c(C(=O)O)c(-c3ccc[nH]c3=O)c3c4c(c(F)cc32)CCO4)cs1` [Compound 99], the EC50 in test [1] is 500 to 1500 nM. The IC50 in test [2] (setting [3]) was below 25 nM.
For `CS(=O)(=O)NC(=O)c1c(-c2ccc[nH]c2=O)c2c3occc3cc(F)c2n1Cc1cc(F)ccc1F` [Compound 151], in that order: 500 to 1500 nM and below 25 nM.
For the molecule `Cc1ccc2nc(Cl)c(Cn3c(C(=O)O)c(-c4ccc[nH]c4=O)c4c5occc5c(F)cc43)cc2c1` [Compound 140], the EC50 in test [1] was below 500 nM. Moreover, the IC50 in test [2] (setting [3]) is below 25 nM.
On to `Nc1n[nH]c2ccc(Cn3c(C(=O)O)c(-c4ccc[nH]c4=O)c4c5occc5c(F)cc43)cc12` [Compound 100], for which the EC50 in test [1] is below 500 nM. Besides, the IC50 in test [2] (setting [3]) is below 25 nM.
The matching figures for `NC(=O)c1ccc(F)c(Cn2c(C(=O)O)c(-c3ccc[nH]c3=O)c3c4occc4ccc32)c1` [Compound 94]: below 500 nM and below 25 nM.
For the molecule `CC(C)S(=O)(=O)NC(=O)c1c(-c2ccc[nH]c2=O)c2c3occc3ccc2n1Cc1cc(F)ccc1F` [Compound 63], in test [1], the EC50 was below 500 nM. The IC50 in test [2] (setting [3]) was below 25 nM.
For `CS(=O)(=O)NC(=O)c1c(-c2ccc[nH]c2=O)c2c3occc3c(F)cc2n1Cc1cc([N+](=O)[O-])ccc1F` [Compound 179], in that order: below 500 nM and below 25 nM.
As for `O=C(O)c1c(-c2ccc[nH]c2=O)c2c3occc3c(F)cc2n1Cc1cc[nH]c(=O)c1` [Compound 78], in test [1], the EC50 was below 500 nM. Further, the IC50 in test [2] (setting [3]) lay in the range of 25 to 100 nM.
In the case of `O=C(NS(=O)(=O)C1CC1)c1c(-c2ccc[nH]c2=O)c2c3occc3ccc2n1Cc1cc(F)ccc1F` [Compound 62], the EC50 in test [1] is below 500 nM. The concentration for half-maximal inhibition (IC50) in test [2] (setting [3]) was below 25 nM.
Consider `Cn1cc(F)c(Cn2c(C(=O)O)c(-c3ccc[nH]c3=O)c3c4occc4c(F)cc32)cc1=O` [Compound 96], for which the EC50 in test [1] is below 500 nM. The IC50 in test [2] (setting [3]) was below 25 nM.
Consider `O=C(NS(=O)(=O)C1CC1)c1c(-c2ccc[nH]c2=O)c2c3occc3c(F)cc2n1Cc1cc([N+](=O)[O-])ccc1F` [Compound 198], for which the EC50 in test [1] is below 500 nM. Moreover, the IC50 in test [2] (setting [3]) is below 25 nM.
In the case of `CC(C)S(=O)(=O)NC(=O)c1c(-c2ccc[nH]c2=O)c2c3occc3c(F)cc2n1Cc1cc(C(N)=O)ccc1F` [Compound 199], in test [1], the EC50 is below 500 nM. The IC50 in test [2] (setting [3]) was below 25 nM.
Turning to `CS(=O)(=O)NC(=O)c1c(-c2ccc[nH]c2=O)c2c3c(ccc2n1Cc1cc(F)ccc1F)CCO3` [Compound 59], in test [1], the EC50 was below 500 nM. The molecule further had an IC50 in test [2] below 25 nM.

Source of the values: US8557848B2, “4,5-ring annulated indole derivatives for treating or preventing of HCV and related viral infections” (Merck Sharp & Dohme Corp., priority 2006, dated 2013).
